Measured values as given in BindingDB's records for doi:10.1016/j.bmcl.2005.01.051 (Merck Research Laboratories, 2005).

Experiment: Inhibition of alphaIIb-beta3 integrin mediated platelet aggregation (PLAGGIN15)

IC50, > 10 µM:
COc1ccc([C@@H](CCC[C@@H](O)CCc2ccc3c(n2)NCCC3)CC(=O)O)cn1 [(3S,7R)-7-Hydroxy-3-(6-methoxy-pyridin-3-yl)-9-(5,6,7,8-tetrahydro-[1,8]naphthyridin-2-yl)-nonanoic acid]
COc1ccc([C@@H](CCC[C@H](O)CCc2ccc3c(n2)NCCC3)CC(=O)O)cn1 [(3S,7S)-7-Hydroxy-3-(6-methoxy-pyridin-3-yl)-9-(5,6,7,8-tetrahydro-[1,8]naphthyridin-2-yl)-nonanoic acid]
COc1ccc([C@@H](CCCC(=O)CCc2ccc3c(n2)NCCC3)CC(=O)O)cn1 [(S)-3-(6-Methoxy-pyridin-3-yl)-7-oxo-9-(5,6,7,8-tetrahydro-[1,8]naphthyridin-2-yl)-nonanoic acid]
